Columns and labels:
[1] = test system: gastric mucosa and intestine; assay: Test for ulcerogenic action (i), single dose, fasted rats; assay type: in vivo; settings: for Gastric glandular score: 18 hours, score 0 (no lesion) to 4 (many large ulcers or perforation)
Description: (§1) (4) Test for ulcerogenic action
(§2) After 18 hours, the rats were killed by suffocation with chloroform and their stomachs were excised. After having been filled with 5 ml of 1% formalin to fix the gastric mucosa, each stomach was incised along the greater curvature to inspect grossly the extent of injury of the gastric mucosa. The extent of injury was scored as follows: 0, no lesion; 1, petechia or erosion; 2, 1-5 small ulcers; 3, many small ulcers; 4, many large ulcers or perforation. The intestinal injury was evaluated based on the incidence of erosion.

[2] = as above; assay type: in vivo; settings: rat, in vivo, po
Description: as §1, §2

[3] = test system: pain threshold (brewer's yeast, hind paw); assay: Analgesic activity, Randall-Selitto method in rat; assay type: in vivo, rat (Wistar strain, male); settings: for Inhibition: 100% = pain threshold raised by 150 g
Description: (ii) Randall-Selitto method in rat
After one hour, the test compound was orally administered. One hour thereafter, the pain threshold value was measured four times at a time interval of one hour. The mean value of four values obtained was taken as the pain threshold value of each group of rats. The activity of the drug was assumed to be 100% when the pain threshold value was raised by 150 g.

Vascular permeability [4] = assay: Vascular permeability in rat (Whittle's method); assay type: in vivo, rat (Wistar strain, male)
Description: (ii) Vascular permeability in rat (Whittle's method)
The test compound was orally administered to each Wistar strain male rat (weighing about 150 g) which had been fasted overnight. After 55 minutes, 0.5 ml of a 0.5% Evans Blue solution was intravenously injected. Five minutes thereafter, 0.2 ml/100 g of a 3%(V/V) acetic acid solution was intraperitoneally injected. After 60 minutes from the injection of the acetic acid solution, the rats were killed by suffocation with chloroform. After immediate laparotomy, the dye leaked into the peritoneal cavity was washed out with physiological saline. The washings were made up with the saline to 30 ml and the absorbance at 640 mμ was measured to examine the effect of the test compounds by comparing the amounts of leaked dye per rat with one another.

in vivo = settings: rat, po
[5] = test system: gastric mucosa and intestine; assay: Test for ulcerogenic action (ii), three doses, rats on normal meal; assay type: in vivo, rat (Donryu strain, male); set-up: scale not given here
Description: (ii) In the same manner as in (i), the test compound was orally administered to each Donryu strain male rat (weighing about 180 g; 10 rats per group) which had received normal meal. The second dose was administered after 8 hours and the third dose after 16 hours from the second dose. Five hours after the last administration, the rats were treated in the same manner as in (i). The gastric mucosa injury and the intestinal injury were scored in the same manner as in (i).

Vascular permeability [6] = assay: Vascular permeability in mice (Whittle's method); assay type: in vivo, mouse (ddY strain, male); settings: for Inhibition: dye leakage
Description: (i) Vascular permeability in mice (Whittle's method)
The test compound was orally administered to each ddY strain male mouse (weighing each about 20 g). After 20 minutes, 0.1 ml/10 g of a 4%(Wt/V) solution of Pontamine Sky Blue in physiological saline was intravenously injected and 10 minutes thereafter 0.1 ml/10 g of a 0.7%(V/V) solution of acetic acid in physiological saline was injected intraperitoneally. After 30 minutes, the mice were killed by suffocation with chloroform. After immediate laparotomy, the dye leaked into the peritoneal cavity was washed out with distilled water. The washings were made up with water to 30 ml and the absorbance at 620 mμ was measured. The amount of leaked dye per 20 g of mouse weight was compared.

[7] = test system: Carrageenin-induced edema; assay: Carrageenin-induced edema; assay type: in vivo, rat (Donryu strain, male); settings: Rattus norvegicus, po, mean in 5 hours, read-out: Inhibitory percent of swelling
Description: (iii) Carrageenin-induced edema
Each of the 6 Donryu strain male rats per group (each weighing about 140 g), which had been fasted overnight, was orally loaded with 4 ml of water and, after 30 minutes, the test compound was orally administered thereto. Thirty minutes thereafter, a 1%(Wt/V) solution of carrageenin in physiological saline was subcutaneously injected into the subplantar region of the left hind paw. At a time interval of one hour, starting from the end of the first hour till the end of the fifth hour after injection of carrageenin, the paw volume was measured by means of a manometer and pressure transducer. By comparison with the percent increase in swelling of the control group of rats to which a 0.5%(V/V) solution of Tween 80 had been administered, the mean inhibitory percent in 5 hours of swelling was calculated by the following equation: [formula]

Adjuvant arthritis = assay: Adjuvant arthritis; assay type: in vivo, rat (Sprague-Dawley strain, male); settings: 1 mg/kg p.o./day, mean during one week
Description: A suspension containing 6 mg/ml of killed and dried Mycobacterium butyricum in liquid paraffin was subcutaneously injected into the subplantar region of the left hind paw of Sprague-Dawley strain male rats (weighing 180 to 200 g) in a proportion of 0.1 ml/rat. After 14 days, the rats having inflammatory paws of similar volumes were selected and the test compound was orally administered to the rats repeatedly at the rate shown in Table 4 during one week and the mean inhibitory percent of swelling during one week was determined.

[8] = test system: phenylbenzoquinone writhing; assay: Analgesic activity, phenylbenzoquinone method in mouse; assay type: in vivo, mouse (ddY strain, male); settings: for Frequency of writhing, mean ± S.E.: during 10 minutes
Description: (i) Phenylbenzoquinone method in mouse
The test compound was orally administered to each ddY strain male mouse (weighing 22±2 g; 8 mice per group). […] The frequency of writhing during 10 minutes from 5-minutes after the injection of phenylbenzoquinone was measured and compared with that of a control group to which a 0.5% Tween 80 solution was administered. The percent inhibition was calculated by the following equation: [formula]

## CC(C(=O)O)c1ccc(-c2cccs2)cc1 (centres unmarked) [Compound C2]
[1]; 10 mg/kg p.o.
  Intestine erosion incidence: 1/7
  Gastric glandular score: 1.11 ± 0.21
[1]; 30 mg/kg p.o.
  Intestine erosion incidence: 1/7
  Gastric glandular score: 1.89 ± 0.24
[1]; 100 mg/kg p.o.
  Intestine erosion incidence: 6/7
  Gastric glandular score: 3.61 ± 0.26
[1]; rat, in vivo
  Death incidence: 3/7
[2]
  TD50 at 18 h: 25 mg/kg
[3]; 1 mg/kg p.o.
  Inhibition: 33.8%
[3]; 5 mg/kg p.o.
  Inhibition: 35.2%
[3]; 25 mg/kg p.o.
  Inhibition: 58.5%
[3]; po, rat, read-out: ED50
  ED50: 14.5 mg/kg
Vascular permeability [4]; 1 mg/kg p.o.
  Inhibition: 16.4%
Vascular permeability [4]; 5 mg/kg p.o.
  Inhibition: 47.3%
Vascular permeability [4]; po, rat, read-out: ED30
  ED30: 2.1 mg/kg
In vivo
  LD50: 115 mg/kg
[5]; 5 mg/kg × 3 p.o.
  Score, intestine, mean ± S.E.: 1.07 ± 0.30
  Score, stomach, mean ± S.E.: 1.21 ± 0.18
[5]; 15 mg/kg × 3 p.o.
  Score, intestine, mean ± S.E.: 1.17 ± 0.21
  Score, stomach, mean ± S.E.: 2.33 ± 0.31
Vascular permeability [6]; 5 mg/kg p.o.
  Dye leakage (P.S.B.) mean ± S.E.: 314.7 ± 31.3 μg/20g
  Inhibition: 1.9%
Vascular permeability [6]; 10 mg/kg p.o.
  Dye leakage (P.S.B.) mean ± S.E.: 264.8 ± 21.8 μg/20g
  Inhibition: 17.5%
Vascular permeability [6]; po, mouse, read-out: ED30
  ED30: 19.8 mg/kg
[7]; 1 mg/kg p.o.
  inhibition in vivo at 1 mg/kg: 11.8%
[7]; 5 mg/kg p.o.
  inhibition in vivo at 5 mg/kg: 32.9%
Adjuvant arthritis
  Inhibitory percent of swelling: 7.2%
[8]; 10 mg/kg p.o.
  Frequency of writhing, mean ± S.E.: 22.3 ± 1.9
[8]; 20 mg/kg p.o.
  Frequency of writhing, mean ± S.E.: 14.6 ± 3.1
[8]; 40 mg/kg p.o.
  Frequency of writhing, mean ± S.E.: 11.1 ± 2.4
[8]; Mus musculus, po, 10 min, writhing, 10 mg/kg p.o., read-out: Inhibition
  inhibition in vivo at 10 mg/kg: 5.5%
[8]; Mus musculus, po, 10 min, writhing, 20 mg/kg p.o., read-out: Inhibition
  inhibition in vivo at 20 mg/kg: 38.1%
[8]; Mus musculus, po, 10 min, writhing, 40 mg/kg p.o.
  inhibition in vivo at 40 mg/kg: 53%
[8]; po, mouse, read-out: ED50
  ED50: 33 mg/kg
